# Data published in patent publication US6875760B2 (Novo Nordisk A/S, priority 1999, dated 2005).
# Molecular target: T1, cloned human glucagon receptor (Homo sapiens, UniProt P47871)
# T1 construct: expressed in transfected cells; plasma membrane preparation
# Test: Glucagon Binding Assay (II)
# Conditions: not given
# T1 sequence (P47871 26-477): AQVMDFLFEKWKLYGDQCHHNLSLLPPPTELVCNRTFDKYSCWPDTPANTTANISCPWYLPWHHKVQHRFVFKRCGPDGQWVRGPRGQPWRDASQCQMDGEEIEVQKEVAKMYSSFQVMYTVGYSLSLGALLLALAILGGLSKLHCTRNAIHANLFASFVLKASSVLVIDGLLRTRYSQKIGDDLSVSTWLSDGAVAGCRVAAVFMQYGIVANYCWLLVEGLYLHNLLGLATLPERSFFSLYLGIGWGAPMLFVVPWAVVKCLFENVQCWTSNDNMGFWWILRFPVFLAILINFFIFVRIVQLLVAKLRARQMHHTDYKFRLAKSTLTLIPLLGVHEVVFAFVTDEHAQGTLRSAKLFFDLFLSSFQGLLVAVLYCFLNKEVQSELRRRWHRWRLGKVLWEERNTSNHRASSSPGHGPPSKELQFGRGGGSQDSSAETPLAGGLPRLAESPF
row,Structure (SMILES),IC50 [nM]
1,CC(C)c1ccc(NC(=O)N(Cc2ccc(C(=O)NCCC(=O)O)cc2)C2CCC(C(C)(C)C)CC2)cc1 (stereo not drawn) [drawing 1170],35
2,CC(C)CC1CCC(N(Cc2ccc(C(=O)NCCC(=O)O)cc2)C(=O)Nc2ccc(OC(F)(F)F)cc2)CC1 (stereo not drawn),140

# Same assay, conditions: plasma membranes of BHK cells expressing the receptor; read-out: Glu Bd Assay (II) IC50
row,IC50 [nM],Structure (SMILES)
1,146,"CC(C)(C)C1CCC(N(Cc2ccc(C(=O)NCCc3nnn[nH]3)cc2)C(=O)Nc2ccc(OC(F)(F)F)cc2)CC1 (stereo not drawn) [Example 156, 4-[1-(4-tert-Butylcyclohexyl)-3-(4-trifluoromethoxyphenyl)ureidomethyl]-N-[2-(1H-tetrazol-5-yl)ethyl]benzamide]"
2,119,"CC(C)(C)C1CCC(N(Cc2ccc(C(=O)NCCC(=O)O)cc2)C(=O)Nc2ccc(SC(F)(F)F)cc2)CC1 (stereo not drawn) [Example 101, 3-{4-[1-(4-tert-Butylcyclohexyl)-3-(4-trifluoromethylsulfanylphenyl)ureidomethyl]benzoylamino)propionic acid]"
3,102,"O=C(O)CCNC(=O)c1ccc(CN(Cc2ccc(OC(F)(F)F)cc2)c2ccc(C3CCCCC3)cc2)cc1 [Example 386, 3-(4-{[(4-Cyclohexylphenyl)-(4-trifluoromethoxybenzyl)amino]methyl}benzoylamino)propionic acid]"
4,7,"N#Cc1ccc(NC(=O)N(Cc2ccc(C(=O)Nc3nn[nH]n3)cc2)c2ccc(C3CCCCC3)cc2)cc1C(F)(F)F [Example 597, 4-[1-(4-Cyclohexylphenyl)-3-(4-cyano-3-trifluoromethylphenyl)ureidomethyl]-N-(2H-tetrazol-5-yl)benzamide]"
5,254,"CC(C)(C)C1CCC(N(Cc2ccc(C(=O)NCCC(=O)O)s2)C(=O)Nc2ccc(OC(F)(F)F)cc2)CC1 (stereo not drawn) [Example 113, 3-{5-[1-(4-tert-Butylcyclohexyl)-3-(4-trifluoromethoxyphenyl)ureidomethyl]thiophene-2-carbonylamino)propionic acid]"
6,694,"C[C@@H](C1CCCCC1)N(Cc1ccc(C(=O)NCCC(=O)O)cc1)C(=O)Nc1ccc2ccccc2c1 [Example 110, 3-{4-[1-((1S)-1-Cyclohexylethyl)-3-naphthalene-2-ylureidomethyl]benzoylamino)propionic acid]"
7,264,CCCCOC(=O)c1ccc(NC(=O)N(Cc2ccc(C(=O)NCCC(=O)O)cc2)CC2CCCCC2)cc1
8,205,O=C(O)CCNC(=O)c1ccc(CN(Cc2cccc(Cl)c2)c2ccc(C3CCCCC3)cc2)cc1 [Example 583]
9,121,CC(C)(C)C1CCC(N(Cc2ccc(C(=O)NCCC(=O)O)cc2)C(=O)Nc2ccc(Oc3ccccc3)cc2)CC1 (stereo not drawn) [drawing 1168]
10,379,"C[C@@H](C1CCCCC1)N(Cc1ccc(C(=O)NCCC(=O)O)cc1)C(=O)Nc1ccc(OC(F)(F)F)cc1 [Example 139, 3-{4-[1-((1S)-1-Cyclohexylethyl)-3-(4-trifluoromethoxyphenyl)ureidomethyl]benzoylamino)propionic acid]"
11,229,"CC(C)(C)C1CCC(N(Cc2ccc(C(=O)NCCC(=O)O)cc2)C(=O)Nc2ccc(Cl)cc2)CC1 (stereo not drawn) [Example 230, 3-{4-[1-(4-tert-Butylcyclohexyl)-3-(4-chlorophenyl)ureidomethyl]benzoylamino}propionic acid]"
12,33,"CC(C)(C)C1CCC(N(Cc2ccc(OC(F)(F)F)cc2)Cc2ccc(C(=O)NCCC(=O)O)cc2)CC1 (stereo not drawn) [Example 385, 3-(4-{[(4-tert-Butylcyclohexyl)-(4-trifluoromethoxybenzyl)amino]methyl}benzoylamino)propionic acid]"
13,224,"CC(C)(C)[C@H]1CC[C@@H](N(Cc2ccc(C(=O)NCCC(=O)O)cc2)NC(=O)c2cccc(OC(F)(F)F)c2)CC1 [Example 590, 3-{4-[N-(cis-4-tert-Butylcyclohexyl)-N′-(3-trifluoromethoxybenzoyl)hydrazinomethyl]benzoylamino}propionic acid]"
14,637,"O=C(O)CCNC(=O)c1ccc(CN(C(=O)Nc2cc(Cl)cc(Cl)c2)C2Cc3ccccc3C2)cc1 [Example 138, 3-{4-[1-Indan-2-yl-3-(3,5-dichlorophenyl)ureidomethyl]benzoylamino}propionic acid]"
15,446,"CC(C)(C)C1CCC(N(Cc2ccc(S(=O)(=O)NCCC(=O)O)cc2)C(=O)Nc2ccc(SC(F)(F)F)cc2)CC1 (stereo not drawn) [Example 105, 3-{4-[1-(4-tert-Butylcyclohexyl)-3-(4-trifluoromethylsulfanylphenyl)ureidomethyl]benzenesulfonylamino)propionic acid]"
16,454,"CC1CC(C)CC(N(Cc2ccc(C(=O)NCCC(=O)O)cc2)C(=O)Nc2cc(Cl)cc(Cl)c2)C1 (stereo not drawn) [Example 177, 3-{4-[3-(3,5-Dichlorophenyl)-1-(3,5-dimethylcyclohexyl)ureidomethyl]benzoylamino)propionic acid]"
17,999,"O=C(O)CCNC(=O)c1ccc(CN(C(=O)Nc2ccc(OC(F)(F)F)cc2)C2CCC3(CC2)SCCS3)cc1 [Example 178, 3-{4-[1-(1,4-Dithiaspiro[4.5]dec-8-yl)-3-(4-trifluoromethoxyphenyl)ureidomethyl]benzoylamino)propionic acid]"
18,669,"CC(C)(C)c1ccc(CN(Cc2ccc(C(=O)NCCC(=O)O)cc2)C(=O)Nc2cc(Cl)cc(Cl)c2)cc1 [Example 108, 3-{4-[1-(4-tert-Butylbenzyl)-3-(3,5-dichlorophenyl)ureidomethyl]benzoylamino)propionic acid]"
19,250,"CC(C)(C)C1CCC(N(Cc2ccc(C(=O)NCCc3nnn[nH]3)cc2)C(=O)Nc2cc(Cl)cc(Cl)c2)CC1 (stereo not drawn) [Example 157, 4-[1-(4-tert-Butylcyclohexyl)-3-(3,5-dichlorophenyl)ureidomethyl]-N-[2-(1H-tetrazol-5-yl)ethyl]benzamide]"
20,426,O=C(O)CCNC(=O)c1ccc(CN(C(=O)Nc2ccc(OC(F)(F)F)cc2)C2CCC3CCCCC3C2)cc1 (stereo not drawn) [drawing 1173]

# Same assay, conditions: read-out: displacement of the glucagon tracer when screened at 1 μM concentration in the glucagon binding assay II
row,Structure (SMILES),inhibition at 1 µM [%]
1,"CC(C)(C)C1CCC(N(Cc2ccc(C(=O)NCCC(=O)O)cc2)C(=O)NC(=O)Oc2ccccc2)CC1 (stereo not drawn) [Example 208, 3-{4-[1-(4-tert-Butylcyclohexyl)-3-(phenoxycarbonyl)ureidomethyl]benzoylamino}propionic acid]",> 50

# Same assay, conditions: screened at 1 μM; library compounds; read-out: displacement of the glucagon tracer when screened at 1 μM concentration in the glucagon binding assay II
row,inhibition at 1 µM [%],Structure (SMILES)
1,> 50,"CCCCc1ccc(NC(=O)N(Cc2ccc(C(=O)NCCC(=O)O)cc2)Cc2ccccc2OC(F)(F)F)cc1 [Example 116, 3-{4-[1-(2-Trifluoromethoxybenzyl)-3-(4-butylphenyl)ureidomethyl]benzoylamino)propionic acid]"
2,> 50,"O=C(O)CCCOc1ccc(CN(C(=O)Nc2ccc(Cl)c(C(F)(F)F)c2)c2ccc(C3CCCCC3)cc2)cc1 [Example 217, 4-{4-[3-(4-Chloro-3-trifluoromethylphenyl)-1-(4-cyclohexylphenyl)ureidomethyl]phenoxy}butyric acid]"
3,> 50,"CC(C)(C)C1CCC(N(Cc2ccc(C(=O)Nc3ccc4c(c3)C(=O)NC4=O)cc2)C(=O)Nc2ccc(Cl)cc2)CC1 (stereo not drawn) [Example 166, 4-[1-(4-tert-Butylcyclohexyl)-3-(4-chlorophenyl)ureidomethyl]-N-(1,3-dioxo-2,3-dihydro-1H-isoindol-5-yl)benzamide]"
4,> 50,"CC(C)(C)C1CCC(N(Cc2ccc(C(=O)NCCC(=O)O)cc2)C(=O)Nc2ccc(C(=O)O)cc2)CC1 (stereo not drawn) [Example 196, 4-{3-(4-tert-Butylcyclohexyl)-3-[4-(2-carboxyethylcarbamoyl)benzyl]ureido}benzoic acid]"
5,> 50,"O=C(O)CCNC(=O)c1ccc(CN(Cc2ccccc2Cl)CC(c2ccccc2)c2ccccc2)s1 [Example 144, 3-(5-{[(2,2-Diphenylethyl)-(2-chlorobenzyl)amino]methyl}thiophene-2-carbonylamino)propionic acid]"
6,> 50,"O=C(O)CCNC(=O)c1ccc(CN(C(=O)NCOc2ccc3ccccc3c2)c2ccc(C3CCCCC3)cc2)cc1 [Example 203, 3-{4-[1-(4-Cyclohexylphenyl)-3-(naphthalen-2-yloxymethyl)ureidomethyl]benzoylamino}propionic acid]"
7,> 50,"O=C(O)CCNC(=O)c1ccc(CN(C(=O)Nc2ccc(Cl)c(C(F)(F)F)c2)c2ccc(C3CCCCC3)cc2)o1 [Example 212, 3-({5-[3-(4-Chloro-3-trifluoromethylphenyl)-1-(4-cyclohexylphenyl)ureidomethyl]furan-2-carbonyl}amino)propionic acid]"
8,> 50,"O=C(O)CCCOc1ccc(CN(C(=O)Nc2cc(C(=O)O)cc(C(=O)O)c2)c2ccc(C3CCCCC3)cc2)cc1 [Example 220, 5-[3-[4-(3-Carboxypropoxy)benzyl]-3-(4-cyclohexylphenyl)ureido]isophthalic acid]"
9,> 50,"CC1CCCCN1CCCN(Cc1ccc(C(=O)NCCC(=O)O)cc1)C(=O)Nc1ccc(Cl)c(C(F)(F)F)c1 (stereo not drawn) [Example 193, 3-(4-{3-(4-Chloro-3-trifluoromethylphenyl)-1-[3-(2-methylpiperidin-1-yl)propyl]ureidomethyl}benzoylamino)propionic acid]"
10,> 50,"CC1(C)C2CCC(CN(Cc3ccc(OCCCC(=O)O)cc3)C(=O)Nc3ccc(Cl)c(C(F)(F)F)c3)C1C2 (stereo not drawn) [Example 215, 4-{4-[3-(4-Chloro-3-trifluoromethylphenyl)-1-(6,6-dimethylbicyclo[3.1.1]hept-2-ylmethyl)ureidomethyl]phenoxy}butyric acid]"
11,> 50,"O=C(O)CCNC(=O)c1ccc(CN(CCc2ccccc2)Cc2ccc(Oc3ccccc3)cc2)s1 [Example 146, 3-(5-{[(2-Phenylethyl)-(4-phenoxybenzyl)amino]methyl}thiophene-2-carbonylamino)propionic acid]"
12,> 50,"O=C(O)CCN1C(=O)c2ccc(CN(C(=O)Nc3ccc(Cl)c(C(F)(F)F)c3)c3ccc4nc(S)sc4c3)cc2C1=O [Example 229, 3-{5-[3-(4-Chloro-3-trifluoromethylphenyl)-1-(2-mercaptobenzothiazol-6-yl)ureidomethyl]1,3-dioxo-1,3-dihydro-isoindol-2-yl}propionic acid]"

row,Structure (SMILES),inhibition at 1 µM [%]
1,"CCCCOc1ccc(NC(=O)N(Cc2ccc(C(=O)NCCC(=O)O)cc2)Cc2ccc(C(F)(F)F)cc2)cc1 [Example 119, 3-{4-[1-(4-Trifluoromethylbenzyl)-3-(4-butoxyphenyl)ureidomethyl]benzoylamino)propionic acid]",> 50
